Laboratory results published in publication PMC4039632 (Journal of molecular biology, 2013).

Target: T1, EngD (Endoglucanase D) (Clostridium cellulovorans, UniProt P28623)
T1 sequence (P28623 32-515): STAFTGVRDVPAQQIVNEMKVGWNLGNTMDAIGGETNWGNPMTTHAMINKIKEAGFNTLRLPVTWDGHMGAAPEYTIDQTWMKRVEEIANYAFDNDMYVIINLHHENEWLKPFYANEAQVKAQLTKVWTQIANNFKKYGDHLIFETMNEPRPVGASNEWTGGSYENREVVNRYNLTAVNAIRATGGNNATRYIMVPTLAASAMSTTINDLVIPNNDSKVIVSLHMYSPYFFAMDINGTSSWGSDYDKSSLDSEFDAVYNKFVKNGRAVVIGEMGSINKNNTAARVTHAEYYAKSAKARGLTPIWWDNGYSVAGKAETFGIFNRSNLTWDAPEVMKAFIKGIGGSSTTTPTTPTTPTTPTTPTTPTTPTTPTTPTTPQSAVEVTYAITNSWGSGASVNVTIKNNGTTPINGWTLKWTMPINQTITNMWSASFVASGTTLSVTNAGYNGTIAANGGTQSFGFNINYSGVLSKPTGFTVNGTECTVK
Assay: HPLC of hydrolysis products
Type: biochemical
Conditions: 2 mM substrate, 100 mM sodium citrate pH 5.0, 37 °C, 30 min

In the case of OC[C@H]1O[C@@H](O[C@H]2[C@H](O)[C@@H](O)[C@H](O[C@H]3[C@H](O)[C@@H](O)[C@H](O[C@H]4[C@H](O)[C@@H](O)[C@H](O[C@H]5[C@H](O)[C@@H](O)[C@H](O[C@H]6[C@H](O)[C@@H](O)C(O)O[C@@H]6CO)O[C@@H]5CO)O[C@@H]4CO)O[C@@H]3CO)O[C@@H]2CO)[C@H](O)[C@@H](O)[C@@H]1O (stereo partly shown) [G6, cellohexaose], the “HPLC of hydrolysis products” value is reported as “Wild type EngD produced an equal amount cellotriose and cellobiose in the degradation of cellohexaose”.
